From article PMC9653173, “Trotabresib (CC-90010) in combination with adjuvant temozolomide or concomitant temozolomide plus radiotherapy in patients with newly diagnosed glioblastoma” (Neuro-Oncology Advances, 2022)
Where “and” joins values, the source holds several entries; their conditions need not be identical. Equal entries are not always repeated. Where two headings read alike, the source gives them in different places.

Tested on: patients with newly diagnosed glioblastoma
Conditions: for TEAEs leading to discontinuation of the labelled study drug(s), patients: February 20, 2022 cutoff
From the text: The phase Ib, dose-escalation part of this study explored escalating oral doses of trotabresib in combination with TMZ in the adjuvant setting and with TMZ plus RT in the concomitant setting. […] Dose-escalation decisions were made by the safety review committee, based on all available safety, pharmacokinetics, pharmacodynamics, and preliminary efficacy information, and a calculation of risk assessment using a Bayesian logistic regression model.
The primary endpoints of the study were to determine the safety and tolerability, maximum tolerated dose, and/or recommended phase II dose (RP2D) of trotabresib in combination with TMZ as adjuvant therapy, and with TMZ and RT as concomitant therapy. […] Trotabresib pharmacodynamics was an exploratory endpoint.
Adverse events (AEs) were classified using the Medical Dictionary for Regulatory Activities v18.1 or higher system organ class and preferred term. Severity of AEs was graded based on the patient’s symptoms according to the National Cancer Institute Common Terminology Criteria for Adverse Events v5.0.[35] Dose-limiting toxicities (DLTs) were defined as any of the toxicities described in Supplementary Table S2 occurring within the DLT assessment period (cycle 1 [28 days]), unless the event could clearly be determined to be unrelated to trotabresib. Screening MRI scans were performed after surgical resection and within 28 days (+3 days) prior to initiation of study treatment. Subsequent tumor assessments by MRI or CT were performed at week 10 during the concomitant treatment period and at the end of every other treatment cycle from cycle 2 onwards during the adjuvant and trotabresib monotherapy treatment periods. Best overall response (BOR) was evaluated as complete response (CR), partial response (PR), SD, progressive disease (PD), or not evaluable, according to Response Assessment in Neuro-Oncology criteria for high-grade glioma.[36] Plasma samples were collected during the first treatment cycle for investigation of trotabresib pharmacokinetics and pharmacodynamics. Plasma pharmacokinetic parameters assessed included peak plasma concentration (Cmax), time to peak plasma concentration (tmax), area under the plasma concentration–time curve (AUC), and terminal half-life (t½). Pharmacodynamic markers assessed included blood levels of CCR1 and HEXIM1 mRNA, which are established markers of BET inhibitor target engagement.[17],[22],[37],[38]

[1] = adjuvant overall (N = 18), related to labelled drug(s)

Cn1cc(-c2cc(S(C)(=O)=O)ccc2OCC2CC2)c2ccccc2c1=O [Trotabresib]
7 (39) n (%): Asthenia TRAE, any grade [1]
1 (14) 1 (14) 1 (14) n (%): TEAEs leading to discontinuation of the labelled study drug(s), patients (adjuvant 45 mg (n = 7))
0 n (%): ALT increased TRAE, grade 3/4 [1] | AST increased TRAE, grade 3/4 [1] | Acneiform dermatitis TRAE, grade 3/4 [1] | Anemia TRAE, grade 3/4 [1] | Blood bilirubin increased TRAE, any grade [1] | Blood bilirubin increased TRAE, grade 3/4 [1] | Decreased appetite TRAE, grade 3/4 [1] | Dysgeusia TRAE, grade 3/4 [1] | Dyspepsia TRAE, grade 3/4 [1] | Fatigue TRAE, grade 3/4 [1] | Hypophosphatemia TRAE, grade 3/4 [1] | Hypotension TRAE, grade 3/4 [1] | Insomnia TRAE, grade 3/4 [1] | Leukopenia TRAE, grade 3/4 [1] | Nausea TRAE, grade 3/4 [1] | Pruritus TRAE, grade 3/4 [1] | Rash TRAE, grade 3/4 [1] | Seizure TRAE, any grade [1] | Seizure TRAE, grade 3/4 [1]
7 (39%) n (%): Rash and other skin-related TRAEs attributed to trotabresib only (adjuvant overall)
6 (33) n (%): Decreased appetite TRAE, any grade [1] | Dysgeusia TRAE, any grade [1] | Hyperbilirubinemia TRAE, any grade [1]
30 mg: Recommended phase II dose (RP2D) (adjuvant (+ TMZ) and concomitant (+ TMZ + RT) settings, 4 days on/24 days off)
16 (89) n (%): Any TRAE, any grade [1]
9 (50) n (%): Any TRAE, grade 3/4 [1] | Nausea TRAE, any grade [1]
5 (28) n (%): Neutropenia TRAE, any grade [1] | Rash TRAE, any grade [1]
1 (6) 1 (6) 1 (6) n (%): TRAEs leading to discontinuation of TMZ, related to labelled drug(s) (adjuvant overall (N = 18)) | TRAEs leading to discontinuation of any study drug, related to labelled drug(s) (adjuvant overall (N = 18)) | TRAEs leading to discontinuation of trotabresib, related to labelled drug(s) (adjuvant overall (N = 18))
3 (17) n (%): Acneiform dermatitis TRAE, any grade [1] | Neutropenia TRAE, grade 3/4 [1] | Pruritus TRAE, any grade [1]
1 (17) 1 (17) 1 (17) n (%): TRAEs leading to discontinuation of TMZ, related to labelled drug(s) (adjuvant 30 mg (n = 6)) | TRAEs leading to discontinuation of any study drug, related to labelled drug(s) (adjuvant 30 mg (n = 6)) | TRAEs leading to discontinuation of trotabresib, related to labelled drug(s) (adjuvant 30 mg (n = 6)) | TEAEs leading to discontinuation of the labelled study drug(s), patients (adjuvant 30 mg (n = 6))
10 (56%) n (%) and 10 (56) n (%): Thrombocytopenia TRAE, any grade [1]
4 (22) n (%): Anemia TRAE, any grade [1] | Hyperglycemia TRAE, any grade [1]
1 (6) n (%): ALT increased TRAE, any grade [1] | AST increased TRAE, any grade [1] | Asthenia TRAE, grade 3/4 [1] | Diarrhea TRAE, grade 3/4 [1] | Hyperbilirubinemia TRAE, grade 3/4 [1] | Hyperglycemia TRAE, grade 3/4 [1] | Intracranial hemorrhage TRAE, any grade [1] | Intracranial hemorrhage TRAE, grade 3/4 [1] | Leukopenia TRAE, any grade [1] | Lymphopenia TRAE, grade 3/4 [1]
7 (39%) n (%) and 7 (39) n (%): Thrombocytopenia TRAE, grade 3/4 [1]
11 (61) n (%): Diarrhea TRAE, any grade [1]
2 (11) n (%): Dyspepsia TRAE, any grade [1] | Fatigue TRAE, any grade [1] | Hypophosphatemia TRAE, any grade [1] | Hypotension TRAE, any grade [1] | Insomnia TRAE, any grade [1] | Lymphopenia TRAE, any grade [1]
2 (11) 2 (11) 2 (11) n (%): TEAEs leading to discontinuation of the labelled study drug(s), patients (adjuvant overall (N = 18))
